Assay results as given in ChEMBL document CHEMBL1127951, “Synthesis and RNA cleaving activities of polyamine derived novel artificial ribonuclease” (Bioorg Med Chem Lett, 1994).

tested on: Nucleic Acid; assay: Binding affinity towards calf thymus DNA was determined; assay type: nucleic-acid assay; conditions: Bos taurus

| K | Structure (SMILES) |
| --- | --- |
| 22000 M⁻¹ | NCCN(CCNC(=O)Cc1c[nH]cn1)CCNC(=O)c1c2ccccc2nc2ccccc12 |
| 16000 M⁻¹ | NCCC(=O)NCCN(CCNC(=O)Cc1c[nH]cn1)CCNC(=O)c1c2ccccc2nc2ccccc12 |
| 150000 M⁻¹ | NCCN(CCN)CCNC(=O)c1c2ccccc2nc2ccccc12 |
